According to ChEMBL document CHEMBL5523737, “Novel Jatrophane Diterpenoids from Euphorbia esula Promotes Lipid Clearance by Transcriptional Regulation of PCSK9” (J Med Chem, 2024):
Activity calls are given as the source filed them. The calls are words filed in the database; no cut-off is given here.

Experiments:
Mus musculus [1] = experiment: Hypolipidemic activity in HFD induced C57BL/6 mouse assessed as reduction in serum TC level at 10 to 30 mg/kg, ip administered for 3 weeks; format: functional, organism-based; conditions: dose 10-30 mg/kg
HepG2 [2] = experiment: Induction of LDL uptake in HNF1alpha knockdown human HepG2 cells at 5 uM incubated for 3 hrs under dark condition by DiI-LDL DMEM staining based fluorescence microplate reader assay; format: functional, cell-based
HepG2 [3] = experiment: Downregulation of PCSK9 protein level in HNF1alpha knockdown human HepG2 cells at 10 uM incubated for 24 hrs by Western blotting analysis; format: functional, cell-based
HepG2 [4] = experiment: Upregulation of LDLR protein level in human HepG2 cells at 5 uM after 6 hrs by Western blotting analysis; format: functional, cell-based
Mus musculus [5] = experiment: Hypolipidemic activity in HFD induced C57BL/6 mouse assessed as reduction in serum VLDL-C level at 10 to 30 mg/kg, ip administered for 3 weeks; format: functional, organism-based; conditions: dose 10-30 mg/kg
[6] = molecular target: Proprotein convertase subtilisin/kexin type 9 (Homo sapiens) (UniProt Q8NBP7); experiment: Inhibition of PCSK9 (unknown origin) promoter activity expressed in HEK293 cells co-transfected with SV40 incubated for 24 hrs by dual luciferase assay; format: cell-based; conditions: dose 1-20 µM
HepG2 [7] = experiment: Inhibition of HNF1alpha nuclear transport in human HepG2 cells at 1 to 10 uM after 24 hrs by Western blotting analysis; format: functional, cell-based; conditions: dose 1-10 µM
Mus musculus [8] = experiment: Hypolipidemic activity in HFD induced C57BL/6 mouse assessed as reduction in serum LDL-C level at 10 to 30 mg/kg, ip administered for 3 weeks; format: functional, organism-based; conditions: dose 10-30 mg/kg
[9] = Cytotoxicity against human HepG2 cells assessed as cell viability at 20 uM after 24 hrs by CCK8 assay; format: toxicity, cell-based; conditions: read-out: Activity
Mus musculus [10] = experiment: Upregulation of […] protein level in HFD induced C57BL/6 mouse liver at 10 to 30 mg/kg, ip administered for 3 weeks by Western blotting analysis; format: functional, organism-based; conditions: dose 10-30 mg/kg
HepG2 [11] = experiment: Downregulation of PCSK9 protein level in human HepG2 cells by Western blotting analysis; format: functional, cell-based; conditions: dose 1-20 µM
[12] = Nephrotoxicity in HFD induced C57BL/6 mouse assessed as change in serum UREA level at 10 to 30 mg/kg, ip administered for 3 weeks; format: toxicity, organism-based; conditions: in vivo, 504 h, dose 10-30 mg/kg
[13] = Hepatotoxicity in HFD induced C57BL/6 mouse assessed as decrease in serum AST level at 10 to 30 mg/kg, ip administered for 3 weeks; format: toxicity, organism-based; conditions: in vivo, 504 h, dose 10-30 mg/kg
[14] = Toxicity in HFD induced C57BL/6 mouse assessed as change in food intake at 10 to 30 mg/kg, ip administered for 3 weeks; format: organism-based; conditions: in vivo, 504 h, dose 10-30 mg/kg
HepG2 [15] = experiment: Upregulation of LDLR protein level in human HepG2 cells by Western blotting analysis; format: functional, cell-based
Mus musculus [16] = experiment: Downregulation of PCSK9 protein level in HFD induced C57BL/6 mouse liver at 10 to 30 mg/kg, ip administered for 3 weeks by Western blotting analysis; format: functional, organism-based; conditions: dose 10-30 mg/kg
HepG2 [17] = experiment: Downregulation of PCSK9 mRNA level in HNF1alpha knockdown human HepG2 cells incubated for 24 hrs by qRT-PCR analysis; format: functional, cell-based
[18] = Effect on HEK293 cell viability at 20 uM; format: toxicity, cell-based; conditions: human, hek293, 20 µM
Mus musculus [19] = experiment: Hypolipidemic activity in HFD induced C57BL/6 mouse assessed as reduction in serum TG level at 10 to 30 mg/kg, ip administered for 3 weeks; format: functional, organism-based; conditions: dose 10-30 mg/kg
HepG2 [20] = experiment: Induction of LDL uptake in human HepG2 cells incubated for 3 hrs under dark condition by DiI-LDL DMEM staining based fluorescence microplate reader assay; format: functional, cell-based
Hepatocyte [21] = experiment: Downregulation of PCSK9 mRNA level in HFD treated mouse hepatocytes at 5 to 20 uM incubated for 24 hrs by qRT-PCR analysis; format: functional, cell-based; conditions: dose 5-20 µM
HepG2 [22] = experiment: Downregulation of PCSK9 protein level in human HepG2 cells at 5 uM after 3 hrs by Western blotting analysis; format: functional, cell-based
[23] = molecular target: Proprotein convertase subtilisin/kexin type 9 (Homo sapiens) (UniProt Q8NBP7); experiment: Inhibition of PCSK9 transcription in human HepG2 cells at 5 uM by AlphaLISA method; format: cell-based
HepG2 [24] = experiment: Downregulation of PCSK9 mRNA level in human HepG2 cells by qRT-PCR analysis; format: functional, cell-based; conditions: dose 1-20 µM
HepG2 [25] = experiment: Effect on HNF1alpha protein level in human HepG2 cells at 5 uM incubated for 24 hrs by Western blotting analysis; format: functional, cell-based
[26] = Hepatotoxicity in HFD induced C57BL/6 mouse assessed as decrease in liver index at 10 to 30 mg/kg, ip administered for 3 weeks; format: toxicity, organism-based; conditions: in vivo, 504 h, dose 10-30 mg/kg
HepG2 [27] = experiment: Upregulation of LDLR mRNA level in HNF1alpha knockdown human HepG2 cells incubated for 24 hrs by qRT-PCR analysis; format: functional, cell-based
Hepatocyte [28] = experiment: Downregulation of PCSK9 protein level in HFD treated mouse hepatocytes at 5 to 20 uM incubated for 24 hrs by Western blotting analysis; format: functional, cell-based; conditions: dose 5-20 µM
[29] = molecular target: Proprotein convertase subtilisin/kexin type 9 (Homo sapiens) (UniProt Q8NBP7); experiment: Inhibition of PCSK9 (unknown origin) promoter activity expressed in HNF1alpha knockdown HEK293 cells co-transfected with SV40 incubated for 24 hrs by dual luciferase assay; format: cell-based
[30] = Hepatotoxicity in HFD induced C57BL/6 mouse assessed as decrease in serum ALT level at 10 to 30 mg/kg, ip administered for 3 weeks; format: toxicity, organism-based; conditions: in vivo, 504 h, dose 10-30 mg/kg
HepG2 [31] = experiment: Upregulation of LDLR mRNA level in human HepG2 cells by qRT-PCR analysis; format: functional, cell-based
[32] = molecular target: Proprotein convertase subtilisin/kexin type 9 (Homo sapiens) (UniProt Q8NBP7); experiment: Inhibition of PCSK9 transcription in human HepG2 cells by AlphaLISA method; format: cell-based
[33] = molecular target: Hepatocyte nuclear factor 1-alpha (Homo sapiens) (UniProt P20823); experiment: Binding affinity to HNF1alpha in human HepG2 cells assessed as increase in thermal stability at 10 uM after 1 hr by CETSA; format: cell-based
HepG2 [34] = experiment: Upregulation of LDLR protein level in HNF1alpha knockdown human HepG2 cells at 10 uM incubated for 24 hrs by Western blotting analysis; format: functional, cell-based
[35] = molecular target: Proprotein convertase subtilisin/kexin type 9 (Homo sapiens) (UniProt Q8NBP7); experiment: Inhibition of PCSK9 (unknown origin) promoter activity expressed in HNF1alpha overexpressed HEK293 cells co-transfected with SV40 incubated for 24 hrs by dual luciferase assay; format: cell-based
[36] = Nephrotoxicity in HFD induced C57BL/6 mouse assessed as change in serum CREA level at 10 to 30 mg/kg, ip administered for 3 weeks; format: toxicity, organism-based; conditions: in vivo, 504 h, dose 10-30 mg/kg
HepG2 [37] = experiment: Induction of LDL uptake in human PCSK9 knockdown HepG2 cells at 5 uM incubated for 3 hrs under dark condition by DiI-LDL DMEM staining based fluorescence microplate reader assay; format: functional, cell-based
HepG2 [38] = experiment: Induction of LDL uptake in human LDLR knockdown HepG2 cells at 5 uM incubated for 3 hrs under dark condition by DiI-LDL DMEM staining based fluorescence microplate reader assay; format: functional, cell-based
[39] = molecular target: Proprotein convertase subtilisin/kexin type 9 (Homo sapiens) (UniProt Q8NBP7); experiment: Inhibition of PCSK9 (unknown origin) promoter activity expressed in HEK293 cells co-transfected with SV40 at 5 to 10 uM incubated for 24 hrs by dual luciferase assay; format: cell-based; conditions: dose 5-10 µM

Sequence of Hepatocyte nuclear factor 1-alpha (Homo sapiens) (P20823 whole entry): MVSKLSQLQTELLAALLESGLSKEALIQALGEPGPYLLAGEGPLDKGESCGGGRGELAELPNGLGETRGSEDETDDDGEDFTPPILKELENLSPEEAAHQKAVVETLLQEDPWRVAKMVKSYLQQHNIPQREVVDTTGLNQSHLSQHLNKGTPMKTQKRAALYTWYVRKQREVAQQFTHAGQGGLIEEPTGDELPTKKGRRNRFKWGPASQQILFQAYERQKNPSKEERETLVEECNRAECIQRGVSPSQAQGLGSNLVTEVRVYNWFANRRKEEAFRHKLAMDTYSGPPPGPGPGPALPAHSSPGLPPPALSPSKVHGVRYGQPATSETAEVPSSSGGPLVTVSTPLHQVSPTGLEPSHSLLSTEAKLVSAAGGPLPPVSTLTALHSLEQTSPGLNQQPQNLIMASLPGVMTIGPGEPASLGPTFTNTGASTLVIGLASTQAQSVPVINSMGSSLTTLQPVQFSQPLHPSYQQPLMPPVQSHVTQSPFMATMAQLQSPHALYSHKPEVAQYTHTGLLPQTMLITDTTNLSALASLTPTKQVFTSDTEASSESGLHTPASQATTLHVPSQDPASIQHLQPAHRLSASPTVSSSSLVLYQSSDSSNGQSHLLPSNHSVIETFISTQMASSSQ

C=C1[C@@H](OC(C)=O)[C@H]2[C@@H](OC(C)=O)[C@@H](C)C[C@]2(OC(C)=O)C(=O)[C@H](C)/C=C/C(C)(C)C(=O)C[C@H]1OC(C)=O
Activity (Mus musculus [1]): Active | Activity (HepG2 [2]): inactive | Activity (HepG2 [3]): inactive | Activity (HepG2 [4]): Active | Activity (Mus musculus [5]): Active | inhibition [6]: Dose-Dependent Effect | inhibition (HepG2 [7]): Active | Activity (Mus musculus [8]): Active | viability at 24 h, 20 µM [9]: > 95% | Activity (Mus musculus [10]): Active | Activity (HepG2 [11]): Dose-Dependent Effect | Activity [12]: Non-Toxic | Activity [13]: Toxic | Activity [14]: Non-Toxic | Activity (HepG2 [15]): Dose-Dependent Effect | Activity (Mus musculus [16]): Active | Activity (HepG2 [17]): inactive | Activity [18]: Non-Toxic | Activity (Mus musculus [19]): Active | Activity (HepG2 [20]): Dose-Dependent Effect | Activity (Hepatocyte [21]): Active | Activity (HepG2 [22]): Active | inhibition [23]: 36.4% | Activity (HepG2 [24]): Dose-Dependent Effect | Activity (HepG2 [25]): inactive | Activity [26]: Toxic | Activity (HepG2 [27]): inactive | Activity (Hepatocyte [28]): Active | inhibition [29]: inactive | Activity [30]: Non-Toxic | Activity (HepG2 [31]): Dose-Dependent Effect | inhibition [32]: Dose-Dependent Effect | Activity [33]: Active | Activity (HepG2 [34]): inactive | inhibition [35]: Active | Activity [36]: Non-Toxic | Activity (HepG2 [37]): Active | Activity (HepG2 [38]): inactive

C=C1[C@@H](OC(C)=O)[C@H]2[C@@H](OC(C)=O)[C@@H](C)C[C@]2(OC(C)=O)C(=O)[C@H](C)/C=C/C(C)(C)C(=O)C[C@H]1OC(=O)C(C)C
viability at 24 h, 20 µM [9]: > 95% | Activity (HepG2 [20]): Active | inhibition [23]: 35.7% | inhibition [32]: Dose-Dependent Effect

C=C1[C@@H](OC(C)=O)[C@H]2[C@@H](OC(C)=O)[C@](C)(OC(C)=O)C[C@]2(OC(C)=O)C(=O)[C@H](C)/C=C/C(C)(C)C(=O)[C@@H](OC(=O)C(C)C)[C@H]1OC(=O)CC
viability at 24 h, 20 µM [9]: > 95% | Activity (HepG2 [20]): Active | inhibition [23]: 28% | inhibition [32]: Dose-Dependent Effect

C=C1[C@@H](OC(C)=O)[C@H]2[C@@H](OC(C)=O)[C@](C)(OC(C)=O)C[C@]2(OC(C)=O)C(=O)[C@H](C)[C@]2(C)O[C@H]2C(C)(C)[C@H](OC(C)=O)[C@@H](OC(=O)C(C)C)[C@H]1OC(=O)C(C)C
inhibition [23]: 0.1%

C=C1[C@@H](OC(C)=O)[C@H]2[C@@H](OC(C)=O)[C@@H](C)C[C@]2(OC(C)=O)C(=O)[C@H](C)/C=C/C(C)(C)[C@H](O)C[C@H]1OC(=O)C(C)C
inhibition [23]: 5.7%

C=C1[C@@H](OC(C)=O)[C@H]2[C@@H](OC(C)=O)[C@@H](C)C[C@]2(OC(C)=O)C(=O)[C@H](C)/C=C/C(C)(C)[C@H](OC(=O)c2ccccc2)[C@@H](OC(C)=O)[C@H]1OC(C)=O
inhibition [23]: 3.1%

C=C1[C@@H](OC(C)=O)[C@H]2[C@@H](OC(C)=O)[C@](C)(OC(=O)Cc3ccccc3)C[C@]2(OC(C)=O)C(=O)[C@H](C)/C=C/C(C)(C)[C@H](OC(=O)c2cccnc2)C[C@H]1OC(=O)C(C)C
Activity (HepG2 [2]): Active | viability at 24 h, 20 µM [9]: > 95% | inhibition [39]: Active | Activity (HepG2 [20]): Active | inhibition [23]: 56.1% | inhibition [32]: Dose-Dependent Effect
